Read-outs that look alike come from different tables or passages of the source.

Results on eight compounds are retold here after patent EP0717995A2, “Cell degeneration suppressing and organ toxicity reducing agent” (SANWA KAGAKU KENKYUSHO CO., LTD., priority 1994, dated 1996).

What all share (type): in vivo
Data set [1] has as its system rats of 10 months of age. Here is the method:
Using rats of 10 months of age (8 to 9 animals per 1 group), 0.5 g/kg of carbon tetrachloride was orally administered as a hepatic toxicity substance to increase the serum GOT level to 500 KARMEN units or more after 24 hours of the administration, simultaneously carrying out oral administration of (1) indomethacin (5 mg/kg) or (2) tetracycline (10 mg/kg) as a pharmaceutical drug having hepatic toxicity, 3 times on every other day.
In the inventive substance-treated group, the sulfatide composition described in Composition Production Example (2 mg/kg as sulfatide) was orally administered simultaneously with the pharmaceutical drug having hepatic toxicity.
The GOT enzyme released in blood caused by hepatocyte destruction was measured 12 hours after completion of the drug administration, and the liver was extracted to carry out histological tissue examination.

The test system of data set [2] is spontaneous nephritis in MRL/1 mice. As to the kind of experiment: Preventive action against spontaneous nephritis in MRL/1 mice (urinary protein, blood urea nitrogen). As to conditions: male MRL/1 mice, positive (urinary protein 100 mg/dl or more) / survived animals. Here is the method: Protective effect of the pharmaceutical preparation of the present invention against spontaneous nephritis in MRL/1 mice was examined (protective effect on functional reduction due to aging).
Each test sample of 1 to 10 mg/kg mixed with feed was orally administered to male MRL/1 mice of 6 weeks of age (15 animals per 1 group) twice a week for 12 weeks. During the administration period, urinary protein was measured once a week to examine positive ratio in each week of age by defining an individual showing a urinary protein level of 100 mg/dl or more as positive. Also, blood urea nitrogen was measured on the next day of the final administration to carry out serologic biochemical evaluation of the action of the compound of the present invention against nephritis, together with histopathological evaluation.

For data set [3], the system named is mouse hepatitis virus (MHV). As to the kind of experiment: Interferon enhancer effect in mice infected with mouse hepatitis virus (survival). Conditions: ICR mice, MHV Friend strain 2 LD50 i.p.; oral sulfatide used simultaneously with IFN-α i.p., once a day for 3 days. As for the experimental part:
Synergetic effect of the simultaneous use of interferon-α (IFN-α) and the substance of the present invention, sulfatide, on mice infected with mouse hepatitis virus (MHV)
A total of 10 ICR mice were used in one group, and intraperitoneal administration of mouse IFN-α and oral administration of […] were carried out once a day for 3 days. Just before the administration on the second day, MHV Friend strain was inoculated into the abdominal cavity in a 2 LD₅₀ equivalent dose, and conditions of the animals were observed until 14 days thereafter to calculate survival ratio.

The subject of data set [4] is herpes simplex type 1 virus (HSV-1). As to the kind of experiment: Interferon enhancer effect in mice infected with herpes simplex type 1 virus (survival). Conditions: BALB/c mice, HSV-1 MIYAMA strain 10 LD50; oral sulfatide for 5 days together with 4 × 10⁴ IU/kg IFN-α i.p. Here is the method: Synergetic effect of the simultaneous use of IFN-α and sulfatide on mice infected with herpes simplex type 1 virus (HSV-1)
A total of 10 BALB/c mice were used in one group and infected with a 10 LD₅₀ equivalent dose of HSV-1 MIYAMA strain. Intraperitoneal administration of IFN-α was carried out on the day before the inoculation of HSV-1 and just after the inoculation, and oral administration of sulfatide was carried out continuously for 5 days starting on the day before the HSV-1 inoculation until the fourth day after the inoculation. Conditions of the animals were observed until 20 days after the HSV-1 infection to calculate survival rate.

The mark [5] stands for this setting: dose 2 mg/kg oral in feed twice a week from 6 weeks of age.
The mark [6] stands for this setting: dose 1 mg/kg oral in feed twice a week from 6 weeks of age.

With `COc1ccc2c(c1)c(CC(=O)O)c(C)n2C(=O)c1ccc(Cl)cc1` [indomethacin, reference compound], the “Changes in GOT, 12 hrs after Completion of Drug Administration” value in data set [1] (group a): carbon tetrachloride + indomethacin (5 mg/kg oral, 3 times on every other day), no sulfatide) was 1054 ± 31.2 KARMEN units.
As to `CCCCCCCCCCCCCCCCOCC(COC1OC(CO)C(O)C(OS(=O)(=O)O)C1O)OC(=O)CCCCCCCCCCCCCCC` [seminolipid, 3-O-(β-D-Galactopyranosyl 3-sulfate)-2-O-hexadecanoyl-1-O-hexadecyl-L-glycerol], in data set [2] (setting [5]), the “Changes in positive urinary protein, Weeks of Age 16” value (from here on “Changes … of Age 16”) is recorded as 3/15; the “Changes in positive urinary protein, Weeks of Age 17” value (“Changes … of Age 17” below) was 4/15; the “Changes in positive urinary protein, Weeks of Age 18” value (shortened to “Changes … of Age 18”) is reported as 8/15.
III³ II³ SO₃ Ge3Cer [SB2]: in data set [2] (setting [5]), the “Changes … of Age 16” value is on record as 4/15; the “Changes … of Age 17” value is reported as 5/15; the “Changes … of Age 18” value is 10/15.
For II³ SO₃ Lac Cer [SM3], in that order: 2/15, 4/15 and 8/15.
Turning to IV³ SO₃ II³ SO₃ Ge4Cer [SB1a], in data set [2] (setting [5]), the “Changes … of Age 16” value was 5/15; the “Changes … of Age 17” value is reported as 7/15; the “Changes … of Age 18” value is given as 10/15.
As to sialyl Lewis A, in data set [2] (setting [6]), the “Changes … of Age 16” value was 3/15; the “Changes … of Age 17” value is given as 5/14; the “Changes … of Age 18” value was 9/14.
Regarding sialyl Lewis X, in data set [2] (setting [6]), the “Changes … of Age 16” value is reported as 3/15; the “Changes … of Age 17” value was 4/15; the “Changes … of Age 18” value is listed as 8/15.
As to sulfatide, the “Changes … of Age 16” value in data set [2] (setting [5]) is listed as 2/15. Besides, in data set [2] (setting [5]), the “Changes … of Age 17” value is reported as 5/15. Moreover, the “Changes … of Age 18” value in data set [2] (setting [5]) is on record as 9/15. For the same compound, the “Changes in GOT, 12 hrs after Completion of Drug Administration” value in data set [1] (group c): carbon tetrachloride + indomethacin (5 mg/kg) + sulfatide composition (2 mg/kg as sulfatide, oral)) came out at 469 ± 61.5 KARMEN units; in data set [1] (group d): carbon tetrachloride + tetracycline (10 mg/kg) + sulfatide composition (2 mg/kg as sulfatide, oral)) it was 439 ± 30.5 KARMEN units; in data set [1] (group e): carbon tetrachloride + sulfatide composition (2 mg/kg as sulfatide, oral)), 128 ± 48.7 KARMEN units. In data set [3], the “effect of IFN-α on average survival days” value is “further increased significantly in a dose dependent fashion”. In addition, the average survival days result in data set [4] was “significantly effective in dose-dependently prolonging average survival days”.
